Measured values from patent EP4653448A1, “COMPOUND FOR RNA CAPPING AND USE THEREOF” (Guangzhou Henovcom Bioscience Co. Ltd., priority 2023, dated 2024).

What was measured:
T7 RNA Polymerase = T7 RNA Polymerase (Escherichia phage T7, UniProt P00573); experiment: Detection of the efficiency of mRNA capping synthesis (in vitro transcription, product yield); format: biochemical; settings: 20 µL mRNA synthesis reaction system
Method: • 1) The plasmids were linearized and the DNA templates were purified. • 2) The mRNA was synthesized by in vitro transcription, using the capping structure prepared in the present disclosure, positive control CleanCap®AG (3'OMe) (Trilink, N-7413), negative control (uncapped mRNA) and blank control (DNase/RNase-Free water), respectively. Reaction system
The reaction was carried out at 37°C for 2 to 3 h. TURBO DNase digestion was carried out for 15 min. The mRNA was precipitated by LiCl for 30 min or more or overnight, and the mRNA precipitate was washed with 75% ethanol, dried briefly to evaporate the ethanol, and the mRNA was redissolved with RNase-Free water.
In the reaction system listed in Table 1, since the solubility of different test compounds varies in different solutions, adjustments can be made as needed. For ease of operation, the commonly used concentrations are 10 mM and 100 mM. […] If the initial concentration of the test compound is 10 mM, the dosage is 8 µL. Regardless of the initial concentration, the dosages of different test compounds were the same, and the final concentrations were also the same.
For example, when testing compounds S17 and S19, their initial concentration was 10 mM, and the addition volume was 8 µL. When testing compounds 5 and 6, their initial concentration was 100 mM, and the addition volume was 0.8 µL.
The assay was performed according to the method described in Example 20.

HEK293T cells = experiment: Expression efficiency of capped luciferase mRNAs in HEK293T cells; format: cell-based; settings: 6 h after transfection of capped luciferase mRNA
Method: • 1) HNE293T cells were cultured in DMEM medium containing 10% FBS and penicillin/streptomycin at 37°C and 5% CO2. • 2) The cultured HEK293T cells were spread in a 96-well plate with 1.25 × 10^4 cells per well. • 3) After the cells completely adhered to the wall, 0.5 µg of a mixture of mRNA sample and Polyplus jet[…] was added to each well of cells, and cultured at 37°C and 5% CO2 for 6 h. • 4) The growth medium was removed from the cells to be tested and the cells were rinsed with PBS. After centrifugation to remove PBS, 50 µL of 1x lysis buffer was added thereto, and cells and all liquid were transferred to a microcentrifuge tube, and then centrifuged at 12000 x g at 4°C for 2 min. • 5) The supernatant was transferred to a new tube. Fluorescence readings were detected using the ONE-Glo Luciferase Assay System Kit.
All test compounds, N-7413, negative control and blank control were tested under the same conditions, and some experimental results in the test results are shown in Table 3. Table 3. Relative fluorescence readings for capped mRNAs
The assay was performed according to the method described in Example 21. All test compounds, N-7413, negative control and blank control were tested under the same conditions, and some experimental results in the test results are shown in Table 5. Table 5 Relative fluorescence readings for capped mRNAs

[1] = biological target: streptavidin-coated magnetic beads (Streptomyces avidinii, UniProt P22629); experiment: Biotin affinity assay (capture of capped mRNA on streptavidin beads and elution); format: binding; settings: capped mRNA bound to streptavidin beads, eluted at 80°C
Chain of streptavidin-coated magnetic beads (P22629 25-183): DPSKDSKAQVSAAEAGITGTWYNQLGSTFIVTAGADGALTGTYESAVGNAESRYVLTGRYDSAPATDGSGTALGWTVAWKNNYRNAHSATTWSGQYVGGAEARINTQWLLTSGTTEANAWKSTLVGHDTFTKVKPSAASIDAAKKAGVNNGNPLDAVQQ
Method: • 1) S1-30nt-mRNA (mRNA capped with compound S1, with a length of 30 nt) was prepared and purified by LiCl; • 2) 500 µL of streptavidin-coated magnetic beads (2 mg) were taken, and the test tube was placed on a magnetic stand to collect the magnetic beads. The supernatant was removed and discarded, and the magnetic beads were washed; • 3) The magnetic beads were resuspended in 600 µL of TES buffer, and 5.5 µg of S1-30nt-mRNA from 1) was added to the magnetic bead resuspension and mixed well; the mixture was incubated at room temperature for one hour on a shaker or vortex mixer; • 4) The sample was placed on the magnetic stand for 5 min, and after the solution became clear, the supernatant was removed; • 5) While keeping the sample on the magnetic stand, the magnetic beads were rinsed three times with TES buffer; • 6) While keeping the sample on the magnetic stand, the magnetic beads were rinsed three times with distilled water; • 7) The deionized water was removed from the beads, and 60 µL of elution buffer heated to 80°C was added and mixed well. The mixture was heated to 80°C for 3 min in a constant-temperature metal bath, then placed on the magnetic stand for 3 min. The supernatant was aspirated as the elution product. • 8) Experimental results

[2] = test compound 4 mM, 37°C 2 to 3 h (Table 2)
[3] = 0.5 µg per well, reading of N-7413 = 1 (Table 3)

Chain of T7 RNA Polymerase (P00573 whole entry): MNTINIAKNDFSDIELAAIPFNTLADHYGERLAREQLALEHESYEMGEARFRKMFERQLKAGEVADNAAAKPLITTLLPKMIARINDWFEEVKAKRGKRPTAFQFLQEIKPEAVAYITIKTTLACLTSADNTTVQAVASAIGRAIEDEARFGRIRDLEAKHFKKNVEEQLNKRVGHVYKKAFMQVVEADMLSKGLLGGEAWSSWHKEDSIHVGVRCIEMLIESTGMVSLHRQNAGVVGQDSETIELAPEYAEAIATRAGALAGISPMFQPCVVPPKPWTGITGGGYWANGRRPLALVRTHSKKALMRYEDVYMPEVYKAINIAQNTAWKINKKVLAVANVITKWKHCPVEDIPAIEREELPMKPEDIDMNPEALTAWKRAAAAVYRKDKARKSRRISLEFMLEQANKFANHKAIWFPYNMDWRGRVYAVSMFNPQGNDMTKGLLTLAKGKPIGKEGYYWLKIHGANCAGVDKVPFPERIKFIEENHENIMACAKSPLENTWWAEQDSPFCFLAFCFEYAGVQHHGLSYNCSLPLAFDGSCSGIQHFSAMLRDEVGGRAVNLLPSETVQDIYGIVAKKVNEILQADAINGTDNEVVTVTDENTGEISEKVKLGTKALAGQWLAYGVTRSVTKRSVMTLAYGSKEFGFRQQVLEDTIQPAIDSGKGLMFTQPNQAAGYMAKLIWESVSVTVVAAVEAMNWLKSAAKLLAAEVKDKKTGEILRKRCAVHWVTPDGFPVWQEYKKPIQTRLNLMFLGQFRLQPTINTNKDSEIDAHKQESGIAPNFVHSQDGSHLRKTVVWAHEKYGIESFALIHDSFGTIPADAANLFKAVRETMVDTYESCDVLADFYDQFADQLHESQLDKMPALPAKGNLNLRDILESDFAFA

SMILES | Final product mass (T7 RNA Polymerase; method of Example 20 (Table 4)) [µg] | Final product mass (T7 RNA Polymerase; [2]) [µg] | Relative fluorescence reading (HEK293T cells; [3]) | Relative fluorescence reading (HEK293T cells; reading of N-7413 = 1 (Table 5)) | recovery rate [1]
CO[C@@H]1[C@H](OP(=O)([O-])OC[C@H]2O[C@@H](n3cnc4c(=O)[nH]c(N)nc43)[C@H](O)[C@@H]2O)[C@@H](COP(=O)(O)OP(=O)(O)OP(=O)(O)OC[C@H]2O[C@@H](n3c[n+](C)c4c(=O)[nH]c(N)nc43)[C@H](O)[C@@H]2OC)O[C@H]1n1cnc2c(N)ncnc21 [Compound N-7413, reference compound] | 122 | 122 | 1.00 | 1.00 | 
CO[C@@H]1[C@H](OP(=O)(O)OC[C@H]2O[C@@H](n3cnc4c(=O)[nH]c(N)nc43)[C@H](O)[C@@H]2O)[C@@H](COP(=O)(O)OP(=O)(O)OP(=O)([O-])OC[C@H]2O[C@@H](n3c[n+](C)c4c(=O)[nH]c(N)nc43)[C@H](O)[C@@H]2CNC(=O)CCCC[C@@H]2SC[C@@H]3NC(=O)N[C@@H]32)O[C@H]1n1cnc2c(N)ncnc21 [Compound S1] |  | 139 | 2.41 |  | 
CO[C@@H]1[C@H](OP(=O)(O)OC[C@H]2O[C@@H](n3cnc4c(=O)[nH]c(N)nc43)[C@H](O)[C@@H]2O)[C@@H](COP(=O)(O)OP(=O)(O)OP(=O)([O-])OC[C@H]2O[C@@H](n3c[n+](C)c4c(=O)[nH]c(N)nc43)[C@H](O)[C@@H]2CNC(=O)CCCCCNC(=O)CCCC[C@@H]2SC[C@@H]3NC(=O)N[C@@H]32)O[C@H]1n1cnc2c(N)ncnc21 [Compound S3] |  | 137 | 2.56 |  | above 95%
CO[C@@H]1[C@H](OP(=O)([O-])OC[C@H]2O[C@@H](n3cnc4c(=O)[nH]c(N)nc43)[C@H](O)[C@@H]2O)[C@@H](COP(=O)(O)OP(=O)(O)OP(=O)(O)OC[C@H]2O[C@@H](n3c[n+](C)c4c(=O)[nH]c(N)nc43)[C@H](O)[C@@H]2Cn2cc(CNC(=O)CCCC[C@@H]3SC[C@@H]4NC(=O)N[C@@H]43)nn2)O[C@H]1n1cnc2c(N)ncnc21 [Compound S41] |  | 126 | 1.81 |  | above 95%
CNc1ccccc1C(=O)NC[C@H]1[C@@H](O)[C@H](n2c[n+](C)c3c(=O)[nH]c(N)nc32)O[C@@H]1COP(=O)([O-])OP(=O)(O)OP(=O)(O)OC[C@H]1O[C@@H](n2cnc3c(N)ncnc32)[C@H](OC)[C@@H]1OP(=O)(O)OC[C@H]1O[C@@H](n2cnc3c(=O)[nH]c(N)nc32)[C@H](O)[C@@H]1O [Compound S165] |  | 88 | 0.34 |  | 
CNc1ccccc1C(=O)NCCCCCC(=O)NC[C@H]1[C@@H](O)[C@H](n2c[n+](C)c3c(=O)[nH]c(N)nc32)O[C@@H]1COP(=O)([O-])OP(=O)(O)OP(=O)(O)OC[C@H]1O[C@@H](n2cnc3c(N)ncnc32)[C@H](OC)[C@@H]1OP(=O)(O)OC[C@H]1O[C@@H](n2cnc3c(=O)[nH]c(N)nc32)[C@H](O)[C@@H]1O [Compound S166] |  | 91 | 0.87 |  | 
CO[C@@H]1[C@H](OP(=O)([O-])OC[C@H]2O[C@@H](n3cnc4c(=O)[nH]c(N)nc43)[C@H](O)[C@@H]2O)[C@@H](COP(=O)(O)OP(=O)(O)OP(=O)(O)OC[C@H]2O[C@@H](n3c[n+](C)c4c(=O)[nH]c(N)nc43)[C@H](O)[C@@H]2NC(=O)CCCC[C@@H]2SC[C@@H]3NC(=O)N[C@@H]32)O[C@H]1n1cnc2c(N)ncnc21 [Compound S169] |  | 131 | 1.35 |  | above 95%
CO[C@@H]1[C@H](OP(=O)([O-])OC[C@H]2O[C@@H](n3cnc4c(=O)[nH]c(N)nc43)[C@H](O)[C@@H]2O)[C@@H](COP(=O)(O)OP(=O)(O)OP(=O)(O)OC[C@H]2O[C@@H](n3c[n+](C)c4c(=O)[nH]c(N)nc43)[C@H](O)[C@@H]2CC(=O)NCCNC(=O)CCCC[C@@H]2SC[C@@H]3NC(=O)N[C@@H]32)O[C@H]1n1cnc2c(N)ncnc21 [Compound S170] |  | 96 | 1.47 |  | above 95%
